Experimental data reported in patent US11253499B2, “Compounds” (priority 2017, dated 2022).

Each molecule was assayed on M. tuberculosis W4-E1-GFP (Mutant). Details: read-out: EC50_Mutant.
Format: cell-based, Mycobacterium tuberculosis

First: O=C(CCC(F)(F)F)N1CC(c2ccc(F)cc2)C1 [Example 1, 4,4,4-trifluoro-1-[3-(4-fluorophenyl)azetidin-1-yl]butan-1-one]
Second: O=C(CCCC(F)(F)F)N1CC(c2ccc(F)cc2)C1 [Example 3, 5,5,5-trifluoro-1-[3-(4-fluorophenyl)azetidin-1-yl]pentan-1-one]
The EC50 of the first is lower: less than 50 nM for the first, 50 to 250 nM for the second.

O=C(CCC(F)(F)F)N1CC(c2cccc(C(F)(F)F)c2)C1 [Example 2, 4,4,4-trifluoro-1-[3-[3-(trifluoromethyl)phenyl]azetidin-1-yl]butan-1-one] and O=C(CCC(F)(F)F)N1CC(c2cccc(OC(F)(F)F)c2)C1 [Example 15, 4,4,4-trifluoro-1-[3-[3-(trifluoromethoxy)phenyl]azetidin-1-yl]butan-1-one] fall in the same range of EC50: 50 to 250 nM for the first, 50 to 250 nM for the second.

First: O=C(CCC(F)(F)F)N1CC(C2CC2)C1 [Example 4, 1-(3-cyclopropylazetidin-1-yl)-4,4,4-trifluoro-butan-1-one]
Second: O=C(CCC(F)(F)F)N1CC(C2CCCC2)C1 [Example 5, 1-(3-cyclopentylazetidin-1-yl)-4,4,4-trifluoro-butan-1-one]
The EC50 of the first is higher: 500 to 1000 nM for the first, 50 to 250 nM for the second.

Compared with O=C(CCC(F)(F)F)N1CC(C2CCCCC2)C1 [Example 6, 1-(3-cyclohexylazetidin-1-yl)-4,4,4-trifluoro-butan-1-one], O=C(CCC(F)(F)F)N1CC(C2CCOCC2)C1 [Example 38, 4,4,4-trifluoro-1-(3-(tetrahydro-2H-pyran-4-yl)azetidin-1-yl)butan-1-one] is higher in EC50: less than 50 nM for the first, 1000 to 10000 nM for the second. The first is the more potent here.

Compared with O=C(CCC(F)(F)F)N1CC(c2cc(C(F)(F)F)ccn2)C1 [Example 7, 4,4,4-trifluoro-1-[3-[4-(trifluoromethyl)-2-pyridyl]azetidin-1-yl]butan-1-one], O=C(CCC(F)(F)F)N1CC(c2ccc(C(F)(F)F)cn2)C1 [Example 8, 4,4,4-trifluoro-1-[3-[5-(trifluoromethyl)-2-pyridyl]azetidin-1-yl]butan-1-one] is higher in EC50: 250 to 500 nM for the first, 500 to 1000 nM for the second.

Compared with O=C(CCC(F)(F)F)N1CC(c2ccc(F)cn2)C1 [Example 9, 4,4,4-trifluoro-1-[3-(5-fluoro-2-pyridyl)azetidin-1-yl]butan-1-one], O=C(CCC(F)(F)F)N1CC(c2ccc(F)nc2)C1 [Example 33, 4,4,4-trifluoro-1-[3-(6-fluoro-3-pyridyl)azetidin-1-yl]butan-1-one] is higher in EC50: 500 to 1000 nM for the first, 1000 to 10000 nM for the second.

Compared with O=C(CCC(F)(F)F)N1CC(c2ncc(F)cc2F)C1 [Example 10, 1-[3-(3,5-difluoro-2-pyridyl)azetidin-1-yl]-4,4,4-trifluoro-butan-1-one], O=C(CCC(F)(F)F)N1CC(c2ccc(F)cc2F)C1 [Example 18, 1-[3-(2,4-difluorophenyl)azetidin-1-yl]-4,4,4-trifluoro-butan-1-one] is lower in EC50: 250 to 500 nM for the first, less than 50 nM for the second. The second is the more potent here.

First: O=C(CCC(F)(F)F)N1CC(c2cc(Cl)ccn2)C1 [Example 11, 1-[3-(4-chloro-2-pyridyl)azetidin-1-yl]-4,4,4-trifluoro-butan-1-one]
Second: O=C(CCC(F)(F)F)N1CC(c2ccnc(Cl)c2)C1 [Example 32, 1-[3-(2-chloro-4-pyridyl)azetidin-1-yl]-4,4,4-trifluoro-butan-1-one]
The EC50 of the first is lower: 50 to 250 nM for the first, 1000 to 10000 nM for the second. The first is the more potent here.

O=C(CCC(F)(F)F)N1CC(c2ccnc(C(F)(F)F)c2)C1 [Example 12, 4,4,4-trifluoro-1-[3-[2-(trifluoromethyl)-4-pyridyl]azetidin-1-yl]butan-1-one] and O=C(CCC(F)(F)F)N1CC(c2ccc(C(F)(F)F)nc2)C1 [Example 21, 4,4,4-trifluoro-1-[3-[6-(trifluoromethyl)-3-pyridyl]azetidin-1-yl]butan-1-one] fall in the same range of EC50: 1000 to 10000 nM for the first, 1000 to 10000 nM for the second.

First: O=C(CCC(F)(F)F)N1CC(c2ccc(Cl)cc2)C1 [Example 13, 1-[3-(4-chlorophenyl)azetidin-1-yl]-4,4,4-trifluoro-butan-1-one]
Second: N#Cc1ccc(C2CN(C(=O)CCC(F)(F)F)C2)cc1 [Example 43, 4-(1-(4,4,4-trifluorobutanoyl)azetidin-3-yl)benzonitrile]
The EC50 of the first is lower: 50 to 250 nM for the first, 1000 to 10000 nM for the second. The first is the more potent here.

First: O=C(CCC(F)(F)F)N1CC(c2ccc(OC(F)(F)F)cc2)C1 [Example 14, 4,4,4-trifluoro-1-[3-[4-(trifluoromethoxy)phenyl]azetidin-1-yl]butan-1-one]
Second: O=C(CCC(F)(F)F)N1CC(c2ccc(C(F)(F)F)cc2)C1 [Example 16]
The EC50 of the first is higher: 1000 to 10000 nM for the first, 250 to 500 nM for the second.

First: O=C(CCC(F)(F)F)N1CC(c2cccc(Cl)c2)C1 [Example 17, 1-[3-(3-chlorophenyl)azetidin-1-yl]-4,4,4-trifluoro-butan-1-one]
Second: O=C(CCC(F)(F)F)N1CC(c2cccc(F)c2)C1 [Example 29, 4,4,4-trifluoro-1-[3-(3-fluorophenyl)azetidin-1-yl]butan-1-one]
The EC50 of the first is lower: less than 50 nM for the first, 50 to 250 nM for the second.

Compared with O=C(CCC(F)(F)F)N1CC(c2ccc(Cl)nc2)C1 [Example 19], COc1ccc(C2CN(C(=O)CCC(F)(F)F)C2)cn1 [Example 22, 4,4,4-trifluoro-1-[3-(6-methoxy-3-pyridyl)azetidin-1-yl]butan-1-one] is lower in EC50: 1000 to 10000 nM for the first, 50 to 250 nM for the second.

First: O=C(CCC(F)(F)F)N1CC(c2ccc(F)cc2Cl)C1 [Example 20, 1-[3-(2-chloro-4-fluoro-phenyl)azetidin-1-yl]-4,4,4-trifluoro-butan-1-one]
Second: Cc1cc(F)ccc1C1CN(C(=O)CCC(F)(F)F)C1 [Example 28, 4,4,4-trifluoro-1-[3-(4-fluoro-2-methyl-phenyl)azetidin-1-yl]butan-1-one]
The EC50 of the first is lower: 50 to 250 nM for the first, 250 to 500 nM for the second.

O=C(CCC(F)(F)F)N1CC(c2cncc(Cl)c2)C1 [Example 23, 1-[3-(5-chloro-3-pyridyl)azetidin-1-yl]-4,4,4-trifluoro-butan-1-one] and O=C(CCC(F)(F)F)N1CC(c2cncc(C(F)(F)F)c2)C1 [Example 24, 4,4,4-trifluoro-1-[3-[5-(trifluoromethyl)-3-pyridyl]azetidin-1-yl]butan-1-one] fall in the same range of EC50: 1000 to 10000 nM for the first, 1000 to 10000 nM for the second.

First: O=C(CCC(F)(F)F)N1CC(c2ccc(F)cc2C(F)(F)F)C1 [Example 25, 4,4,4-trifluoro-1-[3-[4-fluoro-2-(trifluoromethyl)phenyl]azetidin-1-yl]butan-1-one]
Second: O=C(CCC(F)(F)F)N1CC(c2ccc(F)c(F)c2)C1 [Example 27, 1-[3-(3,4-difluorophenyl)azetidin-1-yl]-4,4,4-trifluoro-butan-1-one]
The EC50 of the first is higher: 250 to 500 nM for the first, less than 50 nM for the second.

O=C(CCC(F)(F)F)N1CC(c2cccnc2)C1 [Example 26, 4,4,4-trifluoro-1-[3-(3-pyridyl)azetidin-1-yl]butan-1-one] and O=C(CCC(F)(F)F)N1CC(c2ccncc2)C1 [Example 30, 4,4,4-trifluoro-1-[3-(4-pyridyl)azetidin-1-yl]butan-1-one] fall in the same range of EC50: 1000 to 10000 nM for the first, 1000 to 10000 nM for the second.

First: O=C(CCC(F)(F)F)N1CC(c2ccnc(F)c2)C1 [Example 31, 4,4,4-trifluoro-1-[3-(2-fluoro-4-pyridyl)azetidin-1-yl]butan-1-one]
Second: O=C(CCC(F)(F)F)N1CC(c2cc(F)c(F)c(F)c2)C1 [Example 34, 4,4,4-trifluoro-1-[3-(3,4,5-trifluorophenyl)azetidin-1-yl]butan-1-one]
The EC50 of the first is higher: 1000 to 10000 nM for the first, 50 to 250 nM for the second. The second is the more potent here.

First: O=C(CCC(F)(F)F)N1CC(N2CCC(F)(F)CC2)C1 [Example 35, 1-[3-(4,4-difluoro-1-piperidyl)azetidin-1-yl]-4,4,4-trifluoro-butan-1-one]
Second: O=C(CCC(F)(F)F)N1CC(N2CCCCC2)C1 [Example 39, 4,4,4-trifluoro-1-(3-(piperidin-1-yl)azetidin-1-yl)butan-1-one]
The EC50 of the first is lower: 500 to 1000 nM for the first, 1000 to 10000 nM for the second. The first is the more potent here.

CC(C)Oc1ccc(C2CN(C(=O)CCC(F)(F)F)C2)cn1 [Example 36, 4,4,4-trifluoro-1-[3-(6-isopropoxy-3-pyridyl)azetidin-1-yl]butan-1-one] and O=C(CCC(F)(F)F)N1CC(c2ccc(OCC(F)(F)F)nc2)C1 [Example 37, 4,4,4-trifluoro-1-[3-[6-(2,2,2-trifluoroethoxy)-3-pyridyl]azetidin-1-yl]butan-1-one] fall in the same range of EC50: 1000 to 10000 nM for the first, 1000 to 10000 nM for the second.

First: O=C(CCC(F)(F)F)N1CC(C2CCC(F)(F)CC2)C1 [Example 40, 1-(3-(4,4-difluorocyclohexyl)azetidin-1-yl)-4,4,4-trifluorobutan-1-one]
Second: O=C(CCC(F)(F)F)N1CC(F)(c2ccc(F)cc2)C1 [Example 44, 4,4,4-trifluoro-1-(3-fluoro-3-(4-fluorophenyl)azetidin-1-yl)butan-1-one]
The EC50 of the first is higher: 50 to 250 nM for the first, less than 50 nM for the second. The second is the more potent here.

COC1(c2ccc(F)cc2)CN(C(=O)CCC(F)(F)F)C1 [Example 41, 4,4,4-trifluoro-1-(3-(4-fluorophenyl)-3-methoxyazetidin-1-yl)butan-1-one] and CC1(c2ccc(F)cc2)CN(C(=O)CCC(F)(F)F)C1 [Example 42, 4,4,4-trifluoro-1-(3-(4-fluorophenyl)-3-methylazetidin-1-yl)butan-1-one] fall in the same range of EC50: 50 to 250 nM for the first, 50 to 250 nM for the second.
